The results in this text go back to patent US11834450B2, “Compounds having ((3-nitrophenyl)sulfonyl)acetamide as BCL-2 inhibitors” (Eil Therapeutics, Inc., priority 2021, dated 2023).

In one data set the target is T1, BCL-XL (Homo sapiens, UniProt Q07817).
T1 construct: purchased BPS Bioscience #50223
Kind of data set: BCL-XL TR-FRET Assay (primary PPI inhibition). The format is binding. As to conditions: 60 min incubation; read-out: BCLxL (IC50 code, BCL-XL TR-FRET). As to the method: BCL-XL TR-FRET Assay (BPS Bioscience, #50223) Assay Condition: The following assay concentrations and times were used: 10.5 ng BCL-XL, 5 ul of 1:100 anti-His Tb-labeled donor, 5 ul of 1:100 Dye-labeled acceptor, 5 ul of 1:80 BCL-XL Peptide Ligand, and 2 ul of test compound, with 60 min incubation time. The results of the assay were read using a Clariostar (BMG Labtech) plate reader with the following parameters: TR FRET, 340 ex/620 and 665 em; 60 μsec Delay; and 500 μsec integration.
(TR-FRET usually uses a lanthanide donor and a delayed reading to cut background.)

A short description of data set [1]: Cell viability assay HEK293 (CellTiter-Glo). The data set is classed as cell-based. As to conditions: human, HEK293 cells, read-out: HEK293 (CC50 code). As for the experimental part:
(§1) Assay Condition: Used culture medium for HEK293-DMEM (PanEco, Cat #C420), for the rest of the cell lines—culture medium RPMI-1640 (PanEco, Cat #C363).
(§2) Assay Procedure: Compounds were prepared as 200× stocks with serial dilution in 100% DMSO with a final concentration of 1×. Dispersed 40 μl in 384-well plates at a concentration of 2000 cells per well for HEK293 and at a concentration of 4000 cells per well for the rest of the cell lines using a robotic station Biomek (Beckman). Before adding compounds, the cells were incubated at 37° C. (HEK293 were incubated for a day before adding compounds).
(§3) A dilution plate was prepared by pouring 78 μl of the appropriate culture medium using a robotic station Biomek (Beckman). Sequentially, using a robotic station, 2 μl of substances were taken and added to 78 μl of culture medium (dilution of compounds 40×). Took from there 10 μl and added to the plates to the cells (dilution of compounds 5×). The plates were incubated for 3 days at a temperature 37° C. After 3 days, 10 μl of CellTiter-Glo (Promega) was added to the cells and the luminescence was measured.

The target of the next data set is T2, BCL-2 (Homo sapiens, UniProt P10415).
T2 construct: purchased BPS Bioscience #50222
The data set can be described thus: BCL-2 TR-FRET Assay (primary PPI inhibition). The data set is classed as binding. To be noted: 60 min incubation; read-out: BCL2 (IC50 code, BCL-2 TR-FRET).

The subject of a further data set is RS4-11 cells. The data set can be described thus: Cell viability assay RS4-11 (CellTiter-Glo). The data set is classed as cell-based. As to conditions: Homo sapiens, 72 h; RS4-11 cells, 3 days, CellTiter-Glo; read-out: RS4-11 (CC50 code). As for the experimental part:
as §1, §2, §3
On the technique in general: ATP-based viability assays read luminescence as a measure of living cells.

Data set [2] relates to caspase-3 and -7 activities in RS4-11 cells. The data set can be described thus: Cas-3/7 activation (Caspase-Glo 3/7) in RS4-11 cells. The format is cell-based. As to conditions: Homo sapiens, 3.5 h at 37° C. and 30 min at r.t., read-out: Cas-3/7 (EC50 code). As to the method:
Assay Principle: The Caspase-Glo 3/7 Assay is homogeneous, luminescent assay that measures caspase-3 and -7 activities. The assay provides a luminogenic caspase-3/7 substrate, which contains the tetrapeptide sequence DEVD, in a reagent optimized for caspase activity.
Assay Procedure: Incubate RS4-11 cells with varying concentrations of test compounds for 3.5 h in a humidified incubator at 37° C. and 5% CO2 and 30 min at r.t. Add 15 μl Caspase-Glo reagent to each well and incubate the plate for 30 min at r.t. Read on ClarioStar Plus instrument.
Materials: Promega Caspase-Glo (Promega, #8212); Frozen RS4-11 cells; 384-well white plate (Corning, #3570).
Instrumentation: ClarioStar Plus; Biomek FX for liquid handling (Beckman Coulter).

In a further data set the test system is MOLT-4 cells. Kind of data set: Cell viability assay MOLT-4 (CellTiter-Glo). The data set is classed as cell-based. To be noted: Homo sapiens, 72 h; MOLT-4 cells, 3 days, CellTiter-Glo; read-out: MOLT-4 (CC50 code). As for the experimental part: as §1, §2, §3

Broadly, the IC50 is the concentration needed to halve the response being measured. The CC50 is the concentration at which the toxic effect on the cells reaches its halfway point.

T2 sequence (P10415 whole entry): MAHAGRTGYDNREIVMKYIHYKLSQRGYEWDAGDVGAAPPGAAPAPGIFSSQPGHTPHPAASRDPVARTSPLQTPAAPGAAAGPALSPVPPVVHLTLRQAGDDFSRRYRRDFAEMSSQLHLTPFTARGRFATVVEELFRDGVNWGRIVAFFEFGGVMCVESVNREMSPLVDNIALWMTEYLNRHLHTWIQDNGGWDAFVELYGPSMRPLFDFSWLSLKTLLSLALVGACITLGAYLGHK
T1 sequence (Q07817 whole entry): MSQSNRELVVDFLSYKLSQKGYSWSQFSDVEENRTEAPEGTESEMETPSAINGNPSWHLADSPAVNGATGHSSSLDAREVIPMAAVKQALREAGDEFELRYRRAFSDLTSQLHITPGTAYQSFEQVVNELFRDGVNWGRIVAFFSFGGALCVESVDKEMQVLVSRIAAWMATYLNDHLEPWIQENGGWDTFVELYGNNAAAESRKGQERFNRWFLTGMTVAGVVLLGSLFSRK

Consider `O=C(NS(=O)(=O)c1ccc(NC2CCOC2)c([N+](=O)[O-])c1)c1ccc(N2CCC(CN3CCCCC3c3ccc(Cl)cc3)CC2)cc1Oc1cnc2[nH]ccc2c1` (stereo not drawn) [Compound 63, 4-[4-[[2-(4-chlorophenyl)-1-piperidyl]methyl]-1-piperidyl]-N-[3-nitro-4-(tetrahydrofuran-3-ylamino)phenyl]sulfonyl-2-(1H-pyrrolo[2,3-b]pyridin-5-yloxy)benzamide], for which the half-inhibitory concentration (IC50) on BCL-XL was 2 to 4 µM; on BCL-2, > 50 nM. Also, the CC50 at 3 days in data set [1] is > 25 µM. Besides, the results for the 50% cytotoxic concentration (CC50) in the data set on RS4-11 cells and in the data set with MOLT-4 cells were > 200 nM and 2 to 10 µM, respectively. The EC50 in data set [2] was > 250 nM.
With `O=C(NS(=O)(=O)c1ccc(NCC2CCOCC2)c([N+](=O)[O-])c1)c1ccc(N2CCC(CN3C(=O)C4(CCCC4)C3c3ccccc3)CC2)cc1Oc1cnc2[nH]ccc2c1` (stereo not drawn) [Compound 2, N-[3-nitro-4-(tetrahydropyran-4-ylmethylamino)phenyl]sulfonyl-4-[4-[(3-oxo-1-phenyl-2-azaspiro[3.4]octan-2-yl)methyl]-1-piperidyl]-2-(1H-pyrrolo[2,3-b]pyridin-5-yloxy)benzamide], the 50% inhibitory concentration (IC50) is > 4 µM at BCL-XL and > 50 nM at BCL-2. Further, the 50% cytotoxic concentration (CC50) at 3 days in data set [1] is > 25 µM. Also, the CC50 is > 200 nM in the data set with RS4-11 cells and > 10 µM in the data set on MOLT-4 cells. In addition, the EC50 in data set [2] is > 250 nM.
Consider `O=C(NS(=O)(=O)c1ccc(NCC2CCOCC2)c([N+](=O)[O-])c1)c1ccc(N2CCN(CC(c3ccccc3)c3ccccc3)CC2)cc1Oc1cnc2[nH]ccc2c1` [Compound 4, 4-[4-(2,2-diphenylethyl)piperazin-1-yl]-N-[3-nitro-4-(tetrahydropyran-4-ylmethylamino)phenyl]sulfonyl-2-(1H-pyrrolo[2,3-b]pyridin-5-yloxy)benzamide], for which the IC50 on BCL-XL is > 4 µM; on BCL-2 it was > 50 nM. The cytotoxic concentration (CC50) at 3 days in data set [1] is > 25 µM. Moreover, the CC50 in the data set with RS4-11 cells was > 200 nM; with MOLT-4 cells, 2 to 10 µM. Besides, in data set [2], the EC50 was > 250 nM.
Take `O=C(NS(=O)(=O)c1ccc(NCC2CCOCC2)c([N+](=O)[O-])c1)c1ccc(N2CCN(C[C@@H]3Cc4ccccc4CN3C(=O)c3ccsc3)CC2)cc1Oc1cnc2[nH]ccc2c1` [Compound 36, N-[3-nitro-4-(tetrahydropyran-4-ylmethylamino)phenyl]sulfonyl-2 (1H-pyrrolo[2,3-b]pyridin-5-yloxy)-4-[4-[[(3S)-2-(thiophene-3 carbonyl)-3,4-dihydro-1H-isoquinolin-3-yl]methyl]piperazin 1-yl]benzamide]: the IC50 at BCL-XL was > 4 µM; on BCL-2 it was > 50 nM. Further, in data set [1], the CC50 at 3 days was 10 to 25 µM. For the same molecule, the cytotoxic concentration (CC50) was > 200 nM in the data set on RS4-11 cells and 2 to 10 µM in the data set with MOLT-4 cells. Also, in data set [2], the EC50 is > 250 nM.
With `CC1=CC[C@@H]2C[C@H]1[C@H](c1ccc(Cl)cc1)N(CC1CCN(c3ccc(C(=O)NS(=O)(=O)c4ccc(NCC5CCOCC5)c([N+](=O)[O-])c4)c(Oc4cnc5[nH]ccc5c4)c3)CC1)C2` [Compound 55, 4-[4-[[(1R,4R, 5R)-4-(4-chlorophenyl)-6-methyl-3-azabicyclo[3.3.1]non-6-en-3-yl]methyl]-1-piperidyl]-N-[3-nitro-4-(tetrahydropyran-4-ylmethylamino)phenyl]sulfonyl-2-(1H-pyrrolo[2,3-b]pyridin-5-yloxy)benzamide], the 50% inhibitory concentration (IC50) at BCL-XL was > 4 µM; at BCL-2, > 50 nM. Further, the CC50 at 3 days in data set [1] is > 25 µM. Moreover, the half-maximal cytotoxic concentration (CC50) is > 200 nM in the data set on RS4-11 cells and 2 to 10 µM in the data set on MOLT-4 cells. The EC50 in data set [2] was > 250 nM.
As for `O=C(NS(=O)(=O)c1ccc(NCC2CCOCC2)c([N+](=O)[O-])c1)c1ccc(N2CCC(CN3CCCCCC3c3ccc(Cl)cc3)CC2)cc1Oc1cnc2[nH]ccc2c1` (stereo not drawn) [Compound 44, 4-[4-[[2-(4-chlorophenyl)azepan-1-yl]methyl]-1-piperidyl]-N-[3-nitro-4-(tetrahydropyran-4-ylmethylamino)phenyl]sulfonyl-2-(1H-pyrrolo[2,3-b]pyridin-5-yloxy)benzamide], the CC50 at 3 days in data set [1] is > 25 µM. For the same molecule, at BCL-2, the half-inhibitory concentration (IC50) was > 50 nM. In addition, the figures for the CC50 in the data set on RS4-11 cells and in the data set with MOLT-4 cells were > 200 nM and 2 to 10 µM, respectively. Moreover, the EC50 in data set [2] is > 250 nM.
`CC1=CC[C@H](CN2CCN(c3ccc(C(=O)NS(=O)(=O)c4ccc(NCC5CCOCC5)c([N+](=O)[O-])c4)c(Oc4cnc5[nH]ccc5c4)c3)CC2)[C@@H](c2ccc(Cl)cc2)C1` [Compound 31, 4-[4-[[(1S,6S)-6-(4-chlorophenyl)-4-methyl-cyclohex-3-en-1-yl]methyl]piperazin-1-yl]-N-[3-nitro-4-(tetrahydropyran-4-ylmethylamino)phenyl]sulfonyl-2-(1H-pyrrolo[2,3-b]pyridin-5-yloxy)benzamide]: the half-maximal cytotoxic concentration (CC50) at 3 days in data set [1] lay within 10 to 25 µM. Besides, the 50% cytotoxic concentration (CC50) in the data set on RS4-11 cells lay in the range of 100 to 200 nM; in the data set on MOLT-4 cells, 2 to 10 µM. Moreover, the EC50 in data set [2] was 100 to 250 nM.
Turning to `CC(C)C(=O)N1Cc2ccccc2C[C@@H]1CN1CCN(c2ccc(C(=O)NS(=O)(=O)c3ccc(NCC4CCOCC4)c([N+](=O)[O-])c3)c(Oc3cnc4[nH]ccc4c3)c2)CC1` [Compound 37, 4-[4-[[(3R)-2-(2-methylpropanoyl)-3,4-dihydro-1H-isoquinolin-3-yl]methyl]piperazin-1-yl]-N-[3-nitro-4-(tetrahydropyran-4-ylmethylamino)phenyl]sulfonyl-2-(1H-pyrrolo[2,3-b]pyridin-5-yloxy)benzamide], the results for the IC50 on BCL-XL and at BCL-2 were > 4 µM and > 50 nM, respectively. The EC50 in data set [2] is > 250 nM.
On the same counts, the results for `CC1(C)Cc2ccccc2CN1CC1CCN(c2ccc(C(=O)NS(=O)(=O)c3ccc(NCC4CCOCC4)c([N+](=O)[O-])c3)c(Oc3cnc4[nH]ccc4c3)c2)CC1` [Compound 38, 4-[4-[(3,3-dimethyl-1,4-dihydroisoquinolin-2-yl)methyl]-1-piperidyl]-N-[3-nitro-4-(tetrahydropyran-4-ylmethylamino)phenyl]sulfonyl-2-(1H-pyrrolo[2,3-b]pyridin-5-yloxy)benzamide] are > 4 µM, > 50 nM and > 250 nM.
As for `O=C(NS(=O)(=O)c1ccc(NCC2CCOCC2)c([N+](=O)[O-])c1)c1ccc(N2CCN(C[C@@H]3Cc4cc(Cl)ccc4CN3C(=O)C3CC3)CC2)cc1Oc1cnc2[nH]ccc2c1` [Compound 42, 4-[4-[[(3S)-6-chloro-2-(cyclopropanecarbonyl)-3,4-dihydro-1H-isoquinolin-3-yl]methyl]piperazin-1-yl]-N-[3-nitro-4-(tetrahydropyran-4-ylmethylamino)phenyl]sulfonyl-2-(1H-pyrrolo[2,3-b]pyridin-5-yloxy)benzamide], the CC50 at 3 days in data set [1] was > 25 µM. Besides, the figures for the half-maximal cytotoxic concentration (CC50) in the data set with RS4-11 cells and with MOLT-4 cells were > 200 nM and 2 to 10 µM, respectively. Besides, in data set [2], the EC50 is > 250 nM.
For `O=C(NS(=O)(=O)c1ccc(NCC2CCOCC2)c([N+](=O)[O-])c1)c1ccc(N2CCC(CN3CCCCC3c3ccc(Cl)cc3)CC2)cc1Oc1cnc2[nH]ccc2c1` (stereo not drawn) [Compound 47, 4-[4-[[2-(4-chlorophenyl)-1-piperidyl]methyl]-1-piperidyl]-N-[3-nitro-4-(tetrahydropyran-4-ylmethylamino)phenyl]sulfonyl-2-(1H-pyrrolo[2,3-b]pyridin-5-yloxy)benzamide], the CC50 at 3 days in data set [1] is 10 to 25 µM. Besides, at BCL-2, the IC50 was in the range of 10 to 50 nM. The values for the CC50 in the data set on RS4-11 cells and in the data set with MOLT-4 cells were > 200 nM and 2 to 10 µM, respectively. Also, the EC50 in data set [2] is > 250 nM.
